Legend:
[1] = test system: human colon tumor (HCT-116); settings: compared with 9-aminocamptothecin; cited from earlier work
[2] = test system: triple negative MDA-MB-231 breast carcinoma spheroids; assay: 3D-spheroid invasion; type: cell-based, human; settings: through reversion of EMT
Excerpt: A 3D-spheroid culture formulation was developed that allows for the culture of single uniform spheroids with variety of cell types in 96-well plates that can be used with a variety of epithelial-mesenchymal transition (EMT) biomarker reporters (see, U.S. Patent Publication No. 2011/0143960 A1; Li Q, Chen C, Kapadia A, Zhou Q, Harper M K, et al. (2011), 3D Models of epithelial-mesenchymal transition in breast cancer metastasis: high-throughput screening assay development, validation, and pilot screen. J Biomol Screen 16: 141-154). The 3D-spheroid based assays with neo (control) and derivatives were used to test their ability to revert EMT or induce cytotoxicity against human carcinomas resistant to clinically used TopoIIα drugs, including: MDA-MB-231, MCF7/AdrVP breast cancer, and SW480, Colo201, and DLD-1 (APC mutant) colon cancer cells. This 3D-model utilizes a luciferase reporter of vimentin, a key mesenchymal biomarker expressed in these cells. Vimentin expression is measured using a live spheroid luciferin substrate (caged luciferin) followed by a multiplex assay measuring spheroid viability. […]
Active compounds are then tested for their ability to inhibit spheroid invasion, as follows: Spheroid invasion is measured using 15 spheroids per sample group. […] Invading cells will be measured using an OPERETTA™ high content imaging system.

xenograft tumors = settings: in mice; compared with etoposide; cited from earlier work
TopoIIα = TopoIIα (Homo sapiens, UniProt P11388); assay: In vitro ATP hydrolysis assay (malachite green); type: biochemical
Method: Efficacy of the ATP-competitive inhibition of TopoIIα inhibitors of the invention are tested in vitro using an ATP hydrolysis assay that quantifies inorganic phosphate through the formation of a high molar absorptivity complex with malachite green and molybdate, adapted for use in 384-well plates, with a total reaction volume of 15 μL. This assay was first utilized to determine the Km of TopoIIα for its natural substrate, ATP, using ATP concentrations ranging from 62.5-1600 μM. To measure the apparent Km, the same reactions were repeated in the presence of 2, 5, or 10 μM neo. Absorbance at 620 nm was measured using a microtiter plate reader. To determine the Ki the same method was used with the following modifications: inhibitors (0.1-10 μM) in reaction buffer (without DNA and DTT) are added to the complete reaction buffer and preincubated for 10 min at 37° C. Reactions were initiated by the addition of 600 μM ATP and incubated for 30 min at 37° C. The IC50 value was determined and the Ki was calculated using the Cheng-Prusoff equation. Experiments were repeated in triplicate and GraphPad Prism software was used to perform non-linear fits (method of least squares) to the Michaelis-Menten kinetics (Km and Vmax) or the dose-response inhibition model (IC50 values).

DNA = settings: below 100 μM concentrations; cited from earlier work
Pgp = Pgp (Homo sapiens, UniProt P08183); settings: cited from earlier work
Sequence of Pgp (P08183 whole entry): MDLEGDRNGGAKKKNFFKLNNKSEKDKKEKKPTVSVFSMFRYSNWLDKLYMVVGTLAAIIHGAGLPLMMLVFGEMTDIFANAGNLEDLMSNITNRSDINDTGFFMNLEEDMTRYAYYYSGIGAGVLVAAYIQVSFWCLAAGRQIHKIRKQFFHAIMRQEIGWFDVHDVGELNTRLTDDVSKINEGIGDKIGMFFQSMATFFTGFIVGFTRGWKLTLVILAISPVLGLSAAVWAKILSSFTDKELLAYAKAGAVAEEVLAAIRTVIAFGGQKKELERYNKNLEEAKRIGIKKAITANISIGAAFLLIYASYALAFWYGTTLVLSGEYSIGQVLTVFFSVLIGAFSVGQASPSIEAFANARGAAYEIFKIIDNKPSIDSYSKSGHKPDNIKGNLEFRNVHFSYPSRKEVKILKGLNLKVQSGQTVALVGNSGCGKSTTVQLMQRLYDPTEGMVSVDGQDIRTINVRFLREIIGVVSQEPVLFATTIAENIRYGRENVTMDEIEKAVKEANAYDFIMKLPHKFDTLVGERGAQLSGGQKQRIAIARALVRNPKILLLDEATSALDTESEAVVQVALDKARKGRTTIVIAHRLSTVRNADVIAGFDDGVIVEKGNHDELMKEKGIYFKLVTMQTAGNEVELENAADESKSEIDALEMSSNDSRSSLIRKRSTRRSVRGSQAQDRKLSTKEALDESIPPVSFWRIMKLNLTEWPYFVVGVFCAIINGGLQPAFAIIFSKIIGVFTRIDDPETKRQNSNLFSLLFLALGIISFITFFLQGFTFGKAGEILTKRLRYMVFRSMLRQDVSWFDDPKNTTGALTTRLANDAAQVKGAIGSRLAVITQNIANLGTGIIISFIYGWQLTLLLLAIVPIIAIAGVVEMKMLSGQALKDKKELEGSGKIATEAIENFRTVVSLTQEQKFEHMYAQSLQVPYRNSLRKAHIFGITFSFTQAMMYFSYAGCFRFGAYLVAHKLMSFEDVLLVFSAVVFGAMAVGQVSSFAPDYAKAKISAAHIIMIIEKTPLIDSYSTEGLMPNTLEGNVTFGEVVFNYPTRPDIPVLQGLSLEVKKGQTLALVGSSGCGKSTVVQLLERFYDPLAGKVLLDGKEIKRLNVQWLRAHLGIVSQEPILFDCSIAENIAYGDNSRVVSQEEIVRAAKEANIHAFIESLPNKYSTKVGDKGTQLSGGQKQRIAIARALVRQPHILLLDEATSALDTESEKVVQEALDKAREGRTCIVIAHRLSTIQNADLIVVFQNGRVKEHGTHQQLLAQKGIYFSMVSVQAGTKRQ

Sequence of TopoIIα (P11388 whole entry): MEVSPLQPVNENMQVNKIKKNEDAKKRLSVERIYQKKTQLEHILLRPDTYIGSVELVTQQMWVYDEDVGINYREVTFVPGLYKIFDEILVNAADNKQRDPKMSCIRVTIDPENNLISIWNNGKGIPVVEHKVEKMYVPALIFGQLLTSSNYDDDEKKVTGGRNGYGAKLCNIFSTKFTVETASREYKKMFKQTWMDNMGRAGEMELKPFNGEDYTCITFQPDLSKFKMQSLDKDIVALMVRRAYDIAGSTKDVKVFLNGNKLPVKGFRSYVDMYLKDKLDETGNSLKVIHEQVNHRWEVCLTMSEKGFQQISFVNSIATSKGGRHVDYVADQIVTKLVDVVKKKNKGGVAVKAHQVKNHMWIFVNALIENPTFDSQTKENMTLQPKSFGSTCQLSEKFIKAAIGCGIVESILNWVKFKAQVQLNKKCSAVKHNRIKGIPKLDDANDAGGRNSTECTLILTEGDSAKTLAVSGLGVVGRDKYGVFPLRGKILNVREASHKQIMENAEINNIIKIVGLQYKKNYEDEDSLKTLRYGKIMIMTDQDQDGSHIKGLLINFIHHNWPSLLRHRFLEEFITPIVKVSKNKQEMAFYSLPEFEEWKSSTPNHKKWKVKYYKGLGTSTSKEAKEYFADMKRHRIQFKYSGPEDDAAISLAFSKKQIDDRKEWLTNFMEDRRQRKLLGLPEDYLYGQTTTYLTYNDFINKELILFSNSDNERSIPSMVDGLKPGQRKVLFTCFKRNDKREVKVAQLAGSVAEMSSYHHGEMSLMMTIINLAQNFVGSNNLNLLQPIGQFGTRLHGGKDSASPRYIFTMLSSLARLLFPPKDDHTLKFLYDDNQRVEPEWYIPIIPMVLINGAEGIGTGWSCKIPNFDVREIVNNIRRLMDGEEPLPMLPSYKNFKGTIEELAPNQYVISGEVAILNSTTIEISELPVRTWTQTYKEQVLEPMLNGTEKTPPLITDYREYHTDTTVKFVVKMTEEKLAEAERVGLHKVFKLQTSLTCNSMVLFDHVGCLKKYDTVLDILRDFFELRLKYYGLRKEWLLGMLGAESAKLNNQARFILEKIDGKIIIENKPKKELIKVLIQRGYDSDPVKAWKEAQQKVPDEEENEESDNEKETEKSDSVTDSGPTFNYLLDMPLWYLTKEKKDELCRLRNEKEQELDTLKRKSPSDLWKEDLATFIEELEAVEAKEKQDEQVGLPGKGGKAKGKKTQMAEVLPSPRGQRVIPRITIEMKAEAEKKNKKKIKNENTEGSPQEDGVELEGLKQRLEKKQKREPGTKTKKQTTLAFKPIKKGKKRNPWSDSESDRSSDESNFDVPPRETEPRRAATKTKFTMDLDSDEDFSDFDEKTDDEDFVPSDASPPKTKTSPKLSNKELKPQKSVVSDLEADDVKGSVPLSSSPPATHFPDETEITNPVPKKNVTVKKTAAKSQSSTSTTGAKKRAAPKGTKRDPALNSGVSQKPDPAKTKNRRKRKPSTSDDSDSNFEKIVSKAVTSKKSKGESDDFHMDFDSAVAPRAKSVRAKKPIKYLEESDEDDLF

- Ki (TopoIIα; corresponding to the IC50, calculated using the Cheng-Prusoff equation, read-out: Ki, inhibition of TopoIIα ATPase function): 800 ± 300 nM
- increase of the apparent Km of TopoIIα for ATP (TopoIIα; over a concentration range from 0-10 μM): approximately 2 fold
- IC50 (TopoIIα; read-out: IC50, inhibition of TopoIIα ATPase function): 2000 nM
SMILES: Cn1ccc2c(c1=O)C(=O)c1nccc3c1c-2nc1ccccc13 [neo, Neoamphimedine]
- efficacy in HCT-116 xenografts [1]: as efficacious as
- inhibition of invasive potential of spheroids [2]: significantly inhibits the invasive potential
- inhibition of the growth of xenograft tumors (xenograft tumors): as effective as etoposide
- stabilization of the cleaved complex, DNA strand breaks or intercalation of DNA (DNA): without stabilizing the cleaved complex, or causing significant DNA strand breaks or intercalation of DNA
- substrate for Pgp-dependent MDR (Pgp): not a substrate

Reference: patent US20140309257A1, “TOPOISOMERASE INHIBITORS AND METHODS OF MAKING AND USE AS THERAPEUTIC AGENTS” (THE REGENTS OF THE UNIVERSITY OF COLORADO, a body corporate, priority 2011, published 2014)
